# Measured values reported in EP4173633B1, “PRODUCTS COMPRISING ESSENTIAL OIL OR EXTRACT WITH PHENOLIC COMPOUNDS OBTAINED FROM THE RESIDUAL WATER OF THE HYDRODISTILLATION OF EUCALYPTUS GLOBULUS LEAVES AND THEIR USES” (RAIZ - Instituto De Investigação Da Floresta E Papel, priority 2021, dated 2023).
# System: NIH/3T3 fibroblasts
# Test: β-gal activity associated with senescence, etoposide-induced
# Type: cell-based, mouse
# Conditions: 12.5 µM etoposide 24 h alone; control 8.86%
# Experimental: HaCaT and NIH/3T3 cells were seeded in 12-well plates at a density of 1.5 x 10^5 or 2.5 x 10^4 cells/well, respectively, and adhered for 24 h. Cell senescence was then induced in the HaCaT and NIH/3T3 lines by exposure to 100 µM etoposide (Sigma-Aldrich, St. Louis, MO, USA) for 72 h or 12.5 µM etoposide for 24 h, respectively. After the incubation period, senescent HaCaT and NIH/3T3 cells were treated in the absence or presence of EO (0.16 mg/mL) or HRW (0.8 µg/mL) for 24 h. In the case of NIH/3T3 cells, they were further treated for 24 h with bacterial cellulose membrane extract impregnated with glycerol and 2 µg/cm2 of extract with phenolic compounds obtained from wastewater from hydrodistillation (BC-G-HRW2), prepared from sterile samples (10 cm 2) incubated in 10 ml of DMEM exposure medium. As a control, cells not treated with etoposide were incubated with DMEM exposure medium or similarly prepared BC-G and BC-G-HRW2 membrane extracts. […] Finally, senescent cells were quantified using an inverted microscope (Carl Zeiss, Oberkochen, Germany) at 20x magnification, determining the % of β-gal-positive cells in randomly selected fields in four different images obtained in at least 3 independent experiments performed in duplicate.
smiles,measurement,value
COc1cc([C@@H]2c3cc4c(cc3[C@@H](O[C@@H]3O[C@@H]5CO[C@@H](C)O[C@H]5[C@H](O)[C@H]3O)[C@H]3COC(=O)[C@H]23)OCO4)cc(OC)c1O [etoposide],number of β-gal-positive associated senescent NIH/3T3 cells,44.11%
